Results published in BigSolDB 2.1.

SMILES | solubility (mole fraction) (in 1,4-dioxane, 273.15 K) | solubility (mole fraction) (in 1,4-dioxane, 278.15 K) | solubility (mole fraction) (in 1,4-dioxane, 283.15 K) | solubility (mole fraction) (in 1,4-dioxane, 288.15 K) | solubility (mole fraction) (in 1,4-dioxane, 293.15 K) | solubility (mole fraction) (in 1,4-dioxane, 298.15 K) | solubility (mole fraction) (in 1,4-dioxane, 303.15 K) | solubility (mole fraction) (in 1,4-dioxane, 308.15 K) | solubility (mole fraction) (in 1,4-dioxane, 313.15 K) | solubility (mole fraction) (in acetone, 273.15 K) | solubility (mole fraction) (in acetone, 278.15 K) | solubility (mole fraction) (in acetone, 283.15 K) | solubility (mole fraction) (in acetone, 288.15 K) | solubility (mole fraction) (in acetone, 293.15 K) | solubility (mole fraction) (in acetone, 298.15 K) | solubility (mole fraction) (in acetone, 303.15 K) | solubility (mole fraction) (in acetone, 308.15 K) | solubility (mole fraction) (in acetone, 313.15 K) | solubility (mole fraction) (in ethyl acetate, 273.15 K) | solubility (mole fraction) (in ethyl acetate, 278.15 K) | also measured
O=C1c2ccccc2C(=O)c2c(Cl)cccc21 | 0.00323 | 0.00373 | 0.00412 | 0.00469 | 0.00547 | 0.00607 | 0.00691 | 0.00775 | 0.00896 | 0.00272 | 0.00308 | 0.00336 | 0.00388 | 0.00448 | 0.00531 | 0.00611 | 0.00692 | 0.00767 | 0.00335 | 0.00387 | solubility (mole fraction) (in ethyl acetate, 283.15 K): 0.00459; solubility (mole fraction) (in ethyl acetate, 288.15 K): 0.00531; solubility (mole fraction) (in ethyl acetate, 293.15 K): 0.00605; solubility (mole fraction) (in ethyl acetate, 298.15 K): 0.0069; solubility (mole fraction) (in ethyl acetate, 303.15 K): 0.00795; solubility (mole fraction) (in ethyl acetate, 308.15 K): 0.00913; solubility (mole fraction) (in ethyl acetate, 313.15 K): 0.0106; solubility (mole fraction) (in toluene, 273.15 K): 0.00918; solubility (mole fraction) (in toluene, 278.15 K): 0.01; solubility (mole fraction) (in toluene, 283.15 K): 0.0112; solubility (mole fraction) (in toluene, 288.15 K): 0.0122; solubility (mole fraction) (in toluene, 293.15 K): 0.0132; solubility (mole fraction) (in toluene, 298.15 K): 0.0146; solubility (mole fraction) (in toluene, 303.15 K): 0.016; solubility (mole fraction) (in toluene, 308.15 K): 0.0175; solubility (mole fraction) (in toluene, 313.15 K): 0.019
O=C(O)c1cccc(Cl)c1C(=O)c1ccccc1 | 0.0192 | 0.021 | 0.0231 | 0.0254 | 0.0281 | 0.0309 | 0.034 | 0.0373 | 0.0413 | 0.00169 | 0.00183 | 0.00204 | 0.00225 | 0.00258 | 0.00281 | 0.00308 | 0.00349 | 0.00385 | 0.00545 | 0.00599 | solubility (mole fraction) (in 1,4-dioxane, 318.15 K): 0.0462; solubility (mole fraction) (in acetone, 318.15 K): 0.00432; solubility (mole fraction) (in ethyl acetate, 283.15 K): 0.00692; solubility (mole fraction) (in ethyl acetate, 288.15 K): 0.00811; solubility (mole fraction) (in ethyl acetate, 293.15 K): 0.00959; solubility (mole fraction) (in ethyl acetate, 298.15 K): 0.011; solubility (mole fraction) (in ethyl acetate, 303.15 K): 0.0128; solubility (mole fraction) (in ethyl acetate, 308.15 K): 0.0146; solubility (mole fraction) (in ethyl acetate, 313.15 K): 0.0172; solubility (mole fraction) (in ethyl acetate, 318.15 K): 0.0197
